Data: patent US20120129811A1, “TRICYCLIC INHIBITORS OF PRO-MATRIX METALLOPROTEINASE ACTIVATION” (priority 2010, published 2012)
Structures can show the parent of a compound that is named as a salt.

Assays:
[1] = biological target: T1, proMMP9(20-445;ΔFnII) (SEQ ID NO:6) (Homo sapiens, UniProt P14780, DEL216-390); test: ThermoFluor binding assay with proMMP9(20-445;ΔFnII)
T1 construct: start methionine (N); made in house; host or cells: E. coli BL21(DE3) RIL
T1 sequence (P14780 with tags, fused parts or gaps DEL216-390): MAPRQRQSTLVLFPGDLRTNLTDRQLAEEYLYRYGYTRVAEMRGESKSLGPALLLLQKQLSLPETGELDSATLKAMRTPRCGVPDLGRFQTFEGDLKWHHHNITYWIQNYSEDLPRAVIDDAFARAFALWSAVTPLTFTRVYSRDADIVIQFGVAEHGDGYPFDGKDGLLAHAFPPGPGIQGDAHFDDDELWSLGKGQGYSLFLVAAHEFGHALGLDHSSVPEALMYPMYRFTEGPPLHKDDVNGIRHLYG
Outline: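 Protein thermal stability was measured with 2.8 μM proMMP9(20-445;ΔFnII) and 50 μM 1,8-ANS in 50 mM HEPES pH 7.0, 100 mM NaCl, 0.001% Tween-20, 2.5 mM MgCl2, 300 μM CaCl2, across serial compound dilutions. Samples were heated 40–90° C at 1° C/min with fluorescence read at 500 nm. Tm was fitted, and binding was derived from thermodynamic parameters obtained by DSC and ThermoFluor.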

[2] = biological target: T2, proMMP9(67-444;ΔFnII) (SEQ ID NO:5) (Homo sapiens, UniProt P14780, DEL216-390); test: ThermoFluor binding assay with proMMP9(67-444;ΔFnII)
T2 construct: start methionine (N); made in house; host or cells: E. coli BL21(DE3) RIL
T2 sequence (P14780 with tags, fused parts or gaps DEL216-390): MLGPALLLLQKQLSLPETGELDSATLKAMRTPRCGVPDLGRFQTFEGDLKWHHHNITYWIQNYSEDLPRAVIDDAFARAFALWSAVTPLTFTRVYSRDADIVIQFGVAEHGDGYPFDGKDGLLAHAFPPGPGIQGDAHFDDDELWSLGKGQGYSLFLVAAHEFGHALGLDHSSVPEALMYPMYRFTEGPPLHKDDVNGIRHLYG
Outline: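 Thermal shift of 3.5 μM proMMP9(67-444;ΔFnII), desalted beforehand, with 50 μM 1,8-ANS in 50 mM HEPES pH 7.0, 100 mM NaCl, 2.5 mM MgCl2, 300 μM CaCl2, 0.001% Tween-20. Heated 40–90 °C at 1 °C/min, fluorescence read at 500 nm; binding fitted from Tm shifts using DSC- and ThermoFluor-derived unfolding parameters.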

[3] = biological target: T3, full-length proMMP9(1-707) activation by catalytic MMP3 (Homo sapiens, UniProt P14780, R574P); test: proMMP9/MMP3 P126 Activation Assay; assay type: biochemical
T3 construct: made in house; host or cells: proMMP9: HEK293 (secreted); MMP3: E. coli
T3 sequence (P14780 20-707 R574P): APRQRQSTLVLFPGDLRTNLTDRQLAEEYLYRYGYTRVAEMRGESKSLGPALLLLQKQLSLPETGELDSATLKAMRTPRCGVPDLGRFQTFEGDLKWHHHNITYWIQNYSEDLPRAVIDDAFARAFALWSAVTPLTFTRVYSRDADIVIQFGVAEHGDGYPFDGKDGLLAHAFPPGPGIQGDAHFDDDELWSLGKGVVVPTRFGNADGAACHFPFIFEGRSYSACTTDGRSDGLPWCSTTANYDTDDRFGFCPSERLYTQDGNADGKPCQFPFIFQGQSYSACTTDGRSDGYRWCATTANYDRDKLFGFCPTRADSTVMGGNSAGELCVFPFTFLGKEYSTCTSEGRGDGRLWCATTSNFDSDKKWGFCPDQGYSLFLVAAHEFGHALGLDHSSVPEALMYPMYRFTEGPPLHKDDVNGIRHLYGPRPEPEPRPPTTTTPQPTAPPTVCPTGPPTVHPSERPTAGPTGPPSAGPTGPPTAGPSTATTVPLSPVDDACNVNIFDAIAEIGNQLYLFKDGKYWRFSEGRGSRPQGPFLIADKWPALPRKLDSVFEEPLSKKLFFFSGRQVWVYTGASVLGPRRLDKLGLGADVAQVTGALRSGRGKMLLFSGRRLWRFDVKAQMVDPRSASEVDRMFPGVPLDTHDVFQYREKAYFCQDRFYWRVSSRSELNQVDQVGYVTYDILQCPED
Protocol: proMMP9/MMP3 P126 Activation Assay
The reaction volume was 50 μL. […] Reactivity of residual MMP3 towards P-126 substrate was minimal under these conditions.

[4] = biological target: T4, proMMP13(1-268) activation by plasmin (Homo sapiens, UniProt P45452); test: ProMMP13/Plasmin P126 Activation Assay; assay type: biochemical
T4 construct: 6xHis (C); made in house; host or cells: HEK293 (proMMP13)
Protocol: ProMMP13/Plasmin P126 Activation Assay
On the day of assay, proMMP13(1-268) (SEQ ID NO:7) purified from HEK293 cells and plasmin were diluted to 160 nM and 320 nM, respectively, in assay buffer. The reaction volume was 50 μL. […] The plate was sealed and incubated for 40 min at 37° C. […] Plasmin was not reactive towards P-126 substrate under these conditions.

[5] = biological target: T5, proMMP13(1-268) (SEQ ID NO:7) (Homo sapiens, UniProt P45452); test: ThermoFluor binding assay with proMMP13(1-268)
T5 construct: 6xHis (C); made in house; host or cells: HEK293 (transient, secreted)
Protocol: The ThermoFluor® (TF) assay is a 384-well plate-based binding assay that measures thermal stability of proteins (Biomol Screen 2001, 6, 429-40; Biochemistry 2005, 44, 5258-66). The experiments were carried out using instruments available from Johnson & Johnson Pharmaceutical Research & Development, LLC. TF dye used in all experiments was […] (1,8-ANS) (Invitrogen: A-47).
Compounds were arranged in a pre-dispensed plate (Greiner Bio-one: 781280), wherein compounds were serially diluted in 100% DMSO across 11 columns within a series. Columns 12 and 24 were used as DMSO reference and contained no compound. For multiple compound concentration-response experiments, the compound aliquots (50 nL) were robotically predispensed directly into black 384-well polypropylene PCR microplates (Abgene: TF-0384/k) using a Cartesian Hummingbird liquid handler (DigiLab, Holliston, Mass.). Following compound dispense, protein and dye solutions were added to achieve the final assay volume of 3 μL. The assay solutions were overlayed with 1 μL of silicone oil (Fluka, type DC 200: 85411) to prevent evaporation.
Assay plates were robotically loaded onto a thermostatically controlled PCR-type thermal block and then heated from 40 to 90° C. at a ramp-rate of 1° C./min for all experiments. Fluorescence was measured by continuous illumination with UV light (Hamamatsu LC6) supplied via fiber optics and filtered through a band-pass filter (380-400 nm; >60D cutoff). Fluorescence emission of the entire 384-well plate was detected by measuring light intensity using a CCD camera (Sensys, Roper Scientific) filtered to detect 500±25 nm, resulting in simultaneous and independent readings of all 384 wells. A single image with 20-sec exposure time was collected at each temperature, and the sum of the pixel intensity in a given area of the assay plate was recorded vs temperature and fit to standard equations to yield the Tm (J Biomol Screen 2001, 6, 429-40).
Thermodynamic parameters necessary for fitting compound binding for each proMMP were estimated by differential scanning calorimetry (DSC) and from ThermoFluor® data. The heat capacity of unfolding for each protein was estimated from the molecular weight and from ThermoFluor® dosing data.
ThermoFluor® with proMMP13(1-268) (SEQ ID NO: 7)
The proMMP13(1-268) (SEQ ID NO:7) protein sample preparations included a desalting buffer exchange step via a PD-10 gravity column (GE Healthcare). The desalting buffer exchange was performed prior to diluting the protein to the final assay concentration of 3.5 μM. The concentration of proMMP13(1-268) (SEQ ID NO:7) was estimated spectrophotometrically based on a calculated extinction coefficient of ε280=37000 M^−1 cm^−1, a calculated molecular weight of 30.8 kDa, and calculated pI of 5.33. ThermoFluor® reference conditions were defined as follows: 100 μg/mL proMMP13(1-268) (SEQ ID NO:7), 25 μM 1,8-ANS, pH 7.0 Buffer (50 mM HEPES pH 7.0, 100 mM NaCl, 0.001% Tween-20, 2.5 mM MgCl2, 300 μM CaCl2). The thermodynamic parameters for proMMP13(1-268) (SEQ ID NO:7) are as follows: Tm (° C.)=67 (+/−0.1), ΔUH(Tm)) (cal mol^−1)=107000(+/−5000), ΔUSTm (cal mol^−1 K^−1)=318, ΔUCp (cal mol^−1 K^−1)=2600.

Structure (SMILES)	Kd [1]	Kd [2]	IC50 [3]	IC50 [4]	Kd [5]
COc1ccc(S(C)(=O)=O)cc1Nc1nc2c(ccc3c2cnn3C)s1 [Example 92, (5-Methanesulfonyl-2-methoxy-phenyl)-(6-methyl-6H-3-thia-1,6,7-triaza-as-indacen-2-yl)-amine.HCl]	1.1 µM	0.41 µM	0.13 µM	~6 µM	
CC(C)Oc1ccc(C(N)=O)cc1Nc1nc2c(ccc3[nH]c(Cl)nc32)s1 [Example 25, 3-(7-Chloro-6H-imidazo[4′,5′:3,4]benzo[2,1-d]thiazol-2-ylamino)-4-isopropoxy-benzamide.HCl]	0.43 µM	0.2 µM	0.49 µM		2.7 µM
COc1cc(C)c(C(N)=O)cc1Nc1nc2c(ccc3c2ncn3C)s1 [Example 56, 4-Methoxy-2-methyl-5-(6-methyl-6H-imidazo[4′,5′:3,4]benzo[2,1-d]thiazol-2-ylamino)-benzamide.HCl]	1 µM	3.3 µM	1.1 µM		9.8 µM
COc1ccc(S(C)(=O)=O)cc1Nc1nc2c(ccc3c2ncn3C)s1 [Example 52, (5-Methanesulfonyl-2-methoxy-phenyl)-(6-methyl-6H-imidazo[4′,5′:3,4]benzo[2,1-d]thiazol-2-yl)-amine.HCl]	1.4 µM	0.6 µM	0.16 µM		2.2 µM
COc1ccc(C(N)=O)cc1Nc1nc2c(ccc3c2ncn3C)s1 [Example 39, 4-Methoxy-3-(6-methyl-6H-imidazo[4′,5′:3,4]benzo[2,1-d]thiazol-2-ylamino)-benzamide.HCl]	0.44 µM	0.052 µM	0.094 µM		1.5 µM
COc1ccc(OC)c(Nc2nc3c(ccc4nc(N)sc43)s2)c1 [Example 8, N^7-(2,5-Dimethoxy-phenyl)-benzo[1,2-d;3,4-d′]-bisthiazole-2,7-diamine.TFA]	3.1 µM	0.68 µM	1.2 µM		1.8 µM
CC(C)Oc1ccccc1Nc1nc2c(ccc3nc(N)sc32)s1 [Example 9, N^7-(2-Isopropoxy-phenyl)-benzo[1,2-d;3,4-d′]-bisthiazole-2,7-diamine.TFA]	27 µM	4.4 µM	10 µM		18 µM
COc1ccccc1Nc1nc2c(ccc3[nH]c(NC(C)=O)nc32)s1 [Example 16, N-[2-(2-Methoxy-phenylamino)-6H-imidazo[4′,5′:3,4]benzo[2,1-d]thiazol-7-yl]-acetamide.TFA]	5 µM	0.99 µM	0.89 µM		19 µM
Cc1nc2ccc3sc(Nc4cc(C(=O)O)ccc4OC(C)C)nc3c2s1 [Example 24, 4-Isopropoxy-3-(2-methyl-benzo[1,2-d;3,4-d′]bisthiazol-7-ylamino)-benzoic acid.HCl]	1.2 µM	0.52 µM	0.38 µM		8.4 µM
COc1ccc(C(N)=O)cc1Nc1nc2c(ccc3c2cnn3C)s1 [Example 95, 4-Methoxy-3-(6-methyl-6H-3-thia-1,6,7-triaza-as-indacen-2-ylamino)-benzamide.HCl]	0.19 µM	0.36 µM	0.17 µM	1.8 µM	
CC(C)Oc1ccccc1Nc1nc2c(ccc3c2ncn3C)s1 [Example 32, (2-Isopropoxy-phenyl)-(6-methyl-6H-imidazo[4′,5′:3,4]benzo[2,1-d]thiazol-2-yl)-amine.HCl]	3.7 µM	0.54 µM	0.35 µM		9.2 µM
COc1ccccc1Nc1nc2c(s1)CCCc1nc(N)sc1-2 [Example 14, N^8-(2-Methoxy-phenyl)-5,6-dihydro-4H-1,7-dithia-3,9-diaza-cyclopenta[e]azulene-2,8-diamine.TFA]	2.4 µM	0.55 µM	1.1 µM		20 µM
CC(C)Oc1ccc(C(N)=O)cc1Nc1nc2c(ccc3[nH]cnc32)s1 [Example 29, 3-(6H-Imidazo[4′,5′:3,4]-benzo[2,1-d]thiazol-2-ylamino)-4-isopropoxy-benzamide.HCl]	0.8 µM	0.63 µM	0.55 µM		1.4 µM
COc1c(F)cc(F)cc1Nc1nc2c(ccc3c2ncn3C)s1 [Example 63, (3,5-Difluoro-2-methoxy-phenyl)-(6-methyl-6H-imidazo[4′,5′:3,4]benzo[2,1-d]thiazol-2-yl)-amine.HCl]	1.2 µM	0.45 µM	0.69 µM		2.3 µM
COc1ccc(S(=O)(=O)N(C)C)cc1Nc1nc2c(ccc3c2ncn3C)s1 [Example 55, 4-Methoxy-N,N-dimethyl-3-(6-methyl-6H-imidazo[4′,5′:3,4]benzo[2,1-d]thiazol-2-ylamino)-benzenesulfonamide.HCl]	6.7 µM	2.2 µM	0.53 µM		2.1 µM
CC(C)Oc1ccc(C(N)=O)cc1Nc1nc2c(ccc3[nH]c(CO)nc32)s1 [Example 21, 3-(7-Hydroxymethyl-6H-imidazo[4′,5′:3,4]-benzo[2,1-d]thiazol-2-ylamino)-4-isopropoxy-benzamide.HCl]	0.41 µM	0.33 µM	0.5 µM		3.5 µM
Cn1cnc2c3nc(Nc4ccccc4OC(F)(F)F)sc3ccc21 [Example 58, (6-Methyl-6H-imidazo[4′,5′:3,4]-benzo[2,1-d]thiazol-2-yl)-(2-trifluoromethoxy-phenyl)-amine.HCl]	2.6 µM	0.93 µM	0.38 µM		21 µM
